{"source": "patent US4925870A", "about": "“Therapeutic use of proanthocyanidine A2 as a cytoprotective agent” (Inverni Della Beffa SpA, priority 1985, dated 1990)", "key": {"[1]": {"experiment": "Wound healing activity by oral route in rats treated with prednisone", "assay_type": "in vivo", "conditions": "for Surface after 3 days of administrations (m ± s.e.) / percent variation of surface in comparison with prednisone controls: oral; for percent variation of surface in comparison with prednisone controls: after 3 days", "from_the_text": "(§1) The triterpene fraction obtained from Centella asiatica (CATS), a well-known cicatrizant or healing agent widely used in some European countries, has been chosen as comparison drug."}, "[2]": {"experiment": "Activity on wound scar resistance in normal mice by oral route (force necessary for breaking a cutaneous scar)", "assay_type": "in vivo", "conditions": "n = 20", "from_the_text": "The method used was that of Sixth et al., Arzneim. Forsch. 18, 1460, 1968."}, "[3]": {"experiment": "Acute toxicity in the mouse", "conditions": "for LD50: mouse, in vivo", "experimental": "(§2) The acute toxicity of proanthocyanidine A2 was determined in the mouse and rat on administration by the oral and intreperitoneal routes."}, "[4]": {"experiment": "Acute toxicity in the rat", "conditions": "in vivo", "experimental": "as §2"}, "[5]": {"system": "rat hepatic microsomes", "experiment": "In vitro inhibition of lipid peroxidation (MDA formation) on rat hepatic microsomes", "assay_type": "biochemical", "conditions": "for pIC50: in vitro, rat hepatic microsomes + NADPH + Fe^2+ ADP"}, "[6]": {"experiment": "Wound healing activity on prednisone treated rats by topical application", "assay_type": "in vivo", "from_the_text": "as §1"}, "[7]": {"system": "rat hepatic microsomes", "experiment": "NADPH consumption by hepatic microsomes", "assay_type": "biochemical", "conditions": "for pIC50: NADPH 500 μM + Fe^2+ 20 μM + ADP 500 μM"}, "[8]": {"experiment": "Healing (cicatrising) activity, general statement (topical and oral route, normal and steroid treated animals)", "conditions": "in vivo"}, "[9]": {"system": "rat brain homogenate", "experiment": "In vitro inhibition of lipid peroxidation (MDA formation) on rat brain homogenate", "assay_type": "biochemical", "conditions": "for pIC50: rat brain homogenate", "experimental": "(§3) Proanthocyanidine A2 was assayed for anti-lipid peroxidation activity \"in vitro\" on rat brain homogenate according to the method of Saeed S. A. et al., Biochem. Soc. Trans 9, 442-443, 1981 and on rat hepatic microsomes according to the method of Jha H. C. et al., Biochem. Pharmacol. 34 , 1367-1369, 1985. […] This activity was confirmed on a rat brain \"ex vivo\" test."}, "[10]": {"experiment": "Anti-ulcer activity after i.p. administration on ASA induced gastric ulcers in rats", "assay_type": "in vivo", "conditions": "for Changes in U.I. in comparison with controls / No. of stomach without lesions / Ulceration index (U.I.) mean: i.p., n = 10", "from_the_text": "This activity is believed to be a consequence of its healing activity and microcirculation protecting activity."}, "[11]": {"experiment": "Acute toxicity on topical administration", "conditions": "administered topically"}, "[12]": {"experiment": "Capillary resistance in rats fed on vitamin P deprived diet", "assay_type": "in vivo", "conditions": "for Percent increase (capillary resistance) in comparison with controls: n = 8", "experimental": "The latter was evaluated by the method of Charlier R. et al., Arch. Int. Physiol. Bioch."}, "[13]": {"system": "rat brain", "experiment": "Rat brain ex vivo anti-lipid peroxidation test", "experimental": "as §3"}}, "note": "pIC50: −log10 of the molar value. Entries after “also recorded” stand apart in the source; their conditions may differ.", "data": [{"smiles": "Oc1cc(O)c2c(c1)O[C@@]1(c3ccc(O)c(O)c3)Oc3cc(O)c4c(c3[C@@H]2[C@H]1O)O[C@H](c1ccc(O)c(O)c1)[C@H](O)C4", "note": "[Proanthocyanidine A2]", "values": [{"measurement": "Surface after 3 days of administrations (m ± s.e.)", "setting": "[1]; 50 mg/kg", "result": "280.47 ± 7.01", "unit": "mm^2"}, {"measurement": "percent variation of surface in comparison with prednisone controls", "setting": "[1]; 50 mg/kg", "result": -9.15, "unit": "%"}, {"measurement": "Surface after 3 days of administrations (m ± s.e.)", "setting": "[1]; 100 mg/kg", "result": "271.82 ± 5.35", "unit": "mm^2"}, {"measurement": "percent variation of surface in comparison with prednisone controls", "setting": "[1]; 100 mg/kg", "result": -11.95, "unit": "%"}, {"measurement": "Surface after 3 days of administrations (m ± s.e.)", "setting": "[1]; 200 mg/kg", "result": "265.88 ± 4.38", "unit": "mm^2"}, {"measurement": "percent variation of surface in comparison with prednisone controls", "setting": "[1]; 200 mg/kg", "result": -13.87, "unit": "%"}, {"measurement": "Surface after 3 days of administrations (m ± s.e.)", "setting": "[1]; 400 mg/kg", "result": "259.99 ± 7.72", "unit": "mm^2"}, {"measurement": "percent variation of surface in comparison with prednisone controls", "setting": "[1]; 400 mg/kg", "result": -15.78, "unit": "%"}, {"measurement": "reduction of the area of wounds (in words)", "setting": "[1]; rats, Tables 2 and 3", "result": "favourable effect"}, {"measurement": "Percent increase in comparison (with controls)", "setting": "[2]; 100 mg/kg", "result": "+32.5%"}, {"measurement": "Tension (m + S.E.)", "setting": "[2]; 100 mg/kg", "result": "104.11 + 4.25 g"}, {"measurement": "Percent increase in comparison (with controls)", "setting": "[2]; 200 mg/kg", "result": "+46.6%"}, {"measurement": "Tension (m + S.E.)", "setting": "[2]; 200 mg/kg", "result": "115.12 + 4.90 g"}, {"measurement": "LD50", "setting": "[3]; ip", "result": "> 6000", "unit": "mg/kg"}, {"measurement": "LD50", "setting": "[3]; po", "result": "> 6000", "unit": "mg/kg"}, {"measurement": "acute toxicity (in words)", "setting": "[3]; oral and intraperitoneal routes, mouse and rat", "result": "does not exhibit significant acute toxicity"}, {"measurement": "LD50", "setting": "[4]; ip", "result": "> 3000", "unit": "mg/kg"}, {"measurement": "LD50", "setting": "[4]; po", "result": "> 6000", "unit": "mg/kg"}, {"measurement": "column headed by drawing 2 under MDA formation (ratio of hepatic microsomes IC50 to brain homogenate IC50, by arithmetic)", "setting": "[5]", "result": 1.8}, {"measurement": "pIC50", "setting": "[5]", "result": 6.10}, {"measurement": "Wound area (m ± s.e.)", "setting": "[6]; concentration 1%, day 0 (baseline), n = 10", "result": "324.55 ± 3.77", "unit": "mm^2"}, {"measurement": "percent variation of wound area in comparison with prednisone controls", "setting": "[6]; concentration 1%, day 1", "result": -8.17, "unit": "%"}, {"measurement": "Wound area (m ± s.e.)", "setting": "[6]; concentration 1%, day 1, n = 10", "result": "317.39 ± 3.37", "unit": "mm^2"}, {"measurement": "percent variation of wound area in comparison with prednisone controls", "setting": "[6]; concentration 1%, day 2", "result": -9.70, "unit": "%"}, {"measurement": "Wound area (m ± s.e.)", "setting": "[6]; concentration 1%, day 2, n = 10", "result": "315.04 ± 3.58", "unit": "mm^2"}, {"measurement": "percent variation of wound area in comparison with prednisone controls", "setting": "[6]; concentration 1%, day 3", "result": -9.60, "unit": "%"}, {"measurement": "Wound area (m ± s.e.)", "setting": "[6]; concentration 1%, day 3, n = 10", "result": "308.01 ± 3.77", "unit": "mm^2"}, {"measurement": "Wound area (m ± s.e.)", "setting": "[6]; concentration 2%, day 0 (baseline), n = 10", "result": "327.71 ± 2.92", "unit": "mm^2"}, {"measurement": "percent variation of wound area in comparison with prednisone controls", "setting": "[6]; concentration 2%, day 1", "result": -8.17, "unit": "%"}, {"measurement": "Wound area (m ± s.e.)", "setting": "[6]; concentration 2%, day 1, n = 10", "result": "317.39 ± 3.36", "unit": "mm^2"}, {"measurement": "percent variation of wound area in comparison with prednisone controls", "setting": "[6]; concentration 2%, day 2", "result": -12.38, "unit": "%"}, {"measurement": "Wound area (m ± s.e.)", "setting": "[6]; concentration 2%, day 2, n = 10", "result": "305.69 ± 3.89", "unit": "mm^2"}, {"measurement": "percent variation of wound area in comparison with prednisone controls", "setting": "[6]; concentration 2%, day 3", "result": -15.88, "unit": "%"}, {"measurement": "Wound area (m ± s.e.)", "setting": "[6]; concentration 2%, day 3, n = 10", "result": "286.62 ± 3.74", "unit": "mm^2"}, {"measurement": "pIC50", "setting": "[7]", "result": 4.85}, {"measurement": "column headed by drawing 3 (hepatic microsomes) (ratio of NADPH consumption IC50 to MDA formation IC50, by arithmetic)", "setting": "[7]; hepatic microsomes", "result": 17.5}, {"measurement": "inhibiting activity on NADPH consumption (in words)", "setting": "[7]; in vitro, hepatic microsomes", "result": "low inhibiting activity"}, {"measurement": "healing activity (in words)", "setting": "[8]", "result": "higher than that of known drugs employed in this therapeutic field; also recorded: manifests itself by the topical and also oral route both in normal animals and in animals in which the healing process has been slowed down by treatment with steroids; also recorded: superior to that of known drugs employed in this field"}, {"measurement": "anti-lipid peroxidation activity (in words)", "setting": "[9]", "result": "strong anti-lipid peroxidation activity"}, {"measurement": "pIC50", "setting": "[9]; in vitro", "result": 6.35}, {"measurement": "inhibition of MDA (malondialdehyde) formation (in words)", "setting": "[9]; in vitro, rat brain homogenate and rat hepatic microsomes", "result": "strongly inhibited"}, {"measurement": "Changes in U.I. in comparison with controls", "setting": "[10]; 100 mg/kg", "result": "-18,4"}, {"measurement": "No. of stomach without lesions", "setting": "[10]; 100 mg/kg", "result": 0}, {"measurement": "Ulceration index (U.I.) mean", "setting": "[10]; 100 mg/kg", "result": "39,6"}, {"measurement": "Changes in U.I. in comparison with controls", "setting": "[10]; 200 mg/kg", "result": "-28,1"}, {"measurement": "No. of stomach without lesions", "setting": "[10]; 200 mg/kg", "result": 0}, {"measurement": "Ulceration index (U.I.) mean", "setting": "[10]; 200 mg/kg", "result": "34,9"}, {"measurement": "Changes in U.I. in comparison with controls", "setting": "[10]; 400 mg/kg", "result": "-40,8"}, {"measurement": "No. of stomach without lesions", "setting": "[10]; 400 mg/kg", "result": 0}, {"measurement": "Ulceration index (U.I.) mean", "setting": "[10]; 400 mg/kg", "result": "28,7"}, {"measurement": "anti-ulcer activity (in words)", "setting": "[10]; ulcer protection tests", "result": "active in ulcer protection tests; also recorded: particularly active as an anti-ulcer agent"}, {"measurement": "acute toxicity (in words)", "setting": "[11]", "result": "negligable acute toxicity"}, {"measurement": "vasotropic / venotonic activity (in words)", "setting": "[12]; capillary permeability and resistance", "result": "possesses a vasotropic activity in terms of modification of capillary permeability and resistance; also recorded: normalizing conditions of impaired capillary permeability and capillary fragility"}, {"measurement": "Percent increase (capillary resistance) in comparison with controls", "setting": "[12]; oral 200 mg/kg × 3 days, 0 hours after third administration", "result": 5, "unit": "%"}, {"measurement": "Percent increase (capillary resistance) in comparison with controls", "setting": "[12]; oral 200 mg/kg × 3 days, 2 hours after third administration", "result": 9, "unit": "%"}, {"measurement": "Percent increase (capillary resistance) in comparison with controls", "setting": "[12]; oral 200 mg/kg × 3 days, 4 hours after third administration", "result": 9, "unit": "%"}, {"measurement": "Percent increase (capillary resistance) in comparison with controls", "setting": "[12]; oral 200 mg/kg × 3 days, 6 hours after third administration", "result": 6, "unit": "%"}, {"measurement": "Percent increase (capillary resistance) in comparison with controls", "setting": "[12]; oral 400 mg/kg × 3 days, 0 hours after third administration", "result": 7, "unit": "%"}, {"measurement": "Percent increase (capillary resistance) in comparison with controls", "setting": "[12]; oral 400 mg/kg × 3 days, 2 hours after third administration", "result": 15, "unit": "%"}, {"measurement": "Percent increase (capillary resistance) in comparison with controls", "setting": "[12]; oral 400 mg/kg × 3 days, 4 hours after third administration", "result": 14, "unit": "%"}, {"measurement": "Percent increase (capillary resistance) in comparison with controls", "setting": "[12]; oral 400 mg/kg × 3 days, 6 hours after third administration", "result": 13, "unit": "%"}, {"measurement": "anti-lipid peroxidation activity ex vivo (in words)", "setting": "[13]", "result": "confirmed"}]}, {"smiles": "O=c1c(O)c(-c2ccc(O)c(O)c2)oc2cc(O)cc(O)c12", "note": "[Quercetin, reference compound]", "values": [{"measurement": "column headed by drawing 2 under MDA formation (ratio of hepatic microsomes IC50 to brain homogenate IC50, by arithmetic)", "setting": "[5]", "result": 5.7}, {"measurement": "pIC50", "setting": "[5]", "result": 5.29}, {"measurement": "pIC50", "setting": "[7]", "result": 4.77}, {"measurement": "column headed by drawing 3 (hepatic microsomes) (ratio of NADPH consumption IC50 to MDA formation IC50, by arithmetic)", "setting": "[7]; hepatic microsomes", "result": 3.3}, {"measurement": "pIC50", "setting": "[9]; in vitro", "result": 6.05}]}]}
